Test results from PMC6396024, “Artemin and an Artemin-Derived Peptide, Artefin, Induce Neuronal Survival, and Differentiation Through Ret and NCAM” (Frontiers in Molecular Neuroscience, 2019).
Bridge positions count the residues as written; N and C are the ends. Ends that are not written are not given here. I, II: the chains in the order shown.

Tests used:
[1] = test system: RET; assay: RET phosphorylation assay in PC12-E2 cells; format: cell-based; details: PC12-E2, 10 min; ARTN 2.1 nM, artefin 12.64 μM; phosphotyrosine/total RET by immunoblot; control = 100%
Procedure: The pheochromocytoma cell line PC12-E2 (gift from Dr. Klaus Seedorf, Hagedorn Research Institute, Gentofte Municipality, Denmark) was propagated in Dulbecco’s modified Eagle’s medium (DMEM) supplemented with 5% (v/v) fetal calf serum (FCS), 10% (v/v) horse serum (HS), 1% (v/v) glutamax, 100 U/ml penicillin, and 100 μg/ml streptomycin. Cells were grown at 37°C in a humidified atmosphere containing 5% CO2.
Phosphorylation of RET was assayed in PC12-E2 cells. Cells were seeded at a density of 7 × 10^4 cells/cm^2 in 6 cm cell culture dishes (Nunc) and grown for 24 h. Cells were then grown in starvation medium (growth media with FCS switched to 1%) for 4 h before being stimulated with recombinant human ARTN (2.1 nM) or artefin (12.64 μM) for 10 min. Non-stimulated cells served as a control. Cell lysates were separated by SDS-polyacrylamide gel electrophoresis (SDS-PAGE) and transferred to an Immobilon-P membrane (Millipore, Billerica, MA, United States). Membranes were stained with mouse anti-phosphotyrosine antibody (BD Transduction Lab, New York City, NY, United States; 1:500) or RET (goat anti-mouse antibody, R&D systems, 1:500), followed by incubation with HRP-conjugated anti-mouse IgG. […] RET phosphorylation was determined as the ratio between phosphorylated and total RET. […]

[2] = test system: RET; cerebellar granule neurons (CGNs); assay: Neurite outgrowth in CGNs with anti-RET antibody; format: cell-based, Wistar rat; details: for neurite outgrowth without antibody: ARTN 0.042 nM or artefin 0.47 μM, versus control; for neurite outgrowth with anti-RET antibody / neurite outgrowth with control IgG: 1 h before ARTN 0.042 nM or artefin 0.47 μM; for neurite outgrowth with control IgG: control IgG 4.1 μg/ml
Procedure: (§1) Cerebellar granule neurons (CGNs) were prepared from 7-day-old Wistar rat pups (Charles River Laboratories, Sulzfeld, Germany) as previously described ([Schousboe et al., 1989]). Briefly, pups were decapitated, and the cerebellum was removed and cleared from blood vessels and meninges in ice-cold modified Krebs-Ringer buffer. The cerebellum was dissociated by chopping and trypsinization. Cells were washed in Krebs-Ringer buffer containing DNAse I (Sigma, St. Louis, MO, United States) and soybean trypsin inhibitor (Sigma) to stop trypsinization, and the remaining tissue pieces were pelleted by centrifugation. Cells were then washed in Krebs-Ringer buffer containing Ca^2+ and Mg^2+ and re-suspended in appropriate Neurobasal^TM medium (Invitrogen, Taastrup, Denmark) with supplements depending on the experiment.
(§2) Cerebellar granule neurons CGNs were re-suspended in Neurobasal^TM medium supplemented with 2% (v/v) B27, 0.5% (v/v) glutamax, 100 U/ml penicillin, 100 μg/ml streptomycin, 0.4% (w/v) BSA, and 20 mM HEPES and were seeded in 8-well LabTek Permanox chamber slides (Nunc) at a density of 1 × 10^4 cells/cm^2. Various concentrations of ARTN, artefin, scrambled artefin, or reversed artefin were added to neurons immediately after seeding. For the RET inhibition assay, the inhibitory goat anti-mouse RET antibody (4.1 μg/ml; R&D systems, Abingdon, United Kingdom) or control goat IgG (4.1 μg/ml; Santa Cruz Biotechnology, Dallas, TX, United States) were added to neurons 1 h before stimulation with ARTN (0.042 nM) […]. For the competition assay between growth factor and mimetic peptide, a combination of ARTN (2.1 nM) and artefin (4.2 μM) was added to the cells immediately after seeding. To inhibit Fibroblast growth factor receptor (FGFR) pharmacologically, inhibitor of FGFR, SU5402 (Sigma), was added to the growth medium in serial dilutions of 20, 40, and 80 μM immediately after plating of CGNs, followed by addition of either P2-d (8 μg/ml), ARTN (0.21 nM), or artefin (1.4 μM) 1 h after the plating.
To estimate neurite outgrowth, neurons were fixated 24 h after stimulation and stained with rabbit anti-growth-associated-protein-43 (GAP-43) antibody (Chemicon International, Inc., Temecula, CA, United States) or anti-GFP antibody (for transfection experiment) overnight at 4°C followed by incubation with secondary Alexa-conjugated goat anti-rabbit antibodies (Invitrogen, Taastrup, Denmark). In case of experiments with plasmid transfection, the transfection efficiency was ca. 20% of total cells and the neurite outgrowth was evaluated only in GFP-positive, i.e., transfected, cells. For representative pictures, cells were additionally co-stained with Hoechst 33258.
Computer-assisted fluorescent microscopy was performed using a Nikon Diaphot 300 inverted microscope (Nikon) equipped with a Nikon Plan 20× objective and coupled to a video camera (Grundig Electronics, Germany). For each condition in each experiment, including the experiment with transfections, images of approximately 200 cells were recorded in systematic series of fields of view, and neurite outgrowth was quantified using a stereological approach as previously described ([Rønn et al., 2000]).
FIGURE 6 Inhibition of ARTN-induced (A) and artefin-induced (B) neurite outgrowth in CGNs by anti-RET antibody. CGNs were pre-treated directly after plating for 1 h with anti-RET antibody or control IgG in concentrations 4.1 μg/ml before stimulating with ARTN (0.042 nM) or artefin (0.47 μM).

[3] = test system: FGFR; cerebellar granule neurons (CGNs); assay: Neurite outgrowth in CGNs with FGFR-inhibitor SU5402; format: cell-based, Wistar rat; details: SU5402 20, 40, 80 μM; ARTN 0.21 nM or artefin 1.4 μM; p < 0.01
Procedure: as §1
as §2, with “To inhibit Fibroblast growth factor receptor (FGFR) pharmacologically, inhibitor of FGFR, SU5402 (Sigma), was added to the growth medium in serial dilutions of 20, 40, and 80 μM immediately after plating of CGNs, followed by addition of either P2-d (8 μg/ml), ARTN (0.21 nM), or artefin (1.4 μM) 1 h after the plating.” left out
To estimate neurite outgrowth, neurons were fixated 24 h after stimulation and stained with rabbit anti-growth-associated-protein-43 (GAP-43) antibody (Chemicon International, Inc., Temecula, CA, United States) or anti-GFP antibody (for transfection experiment) overnight at 4°C followed by incubation with secondary Alexa-conjugated goat anti-rabbit antibodies (Invitrogen, Taastrup, Denmark). In case of experiments with plasmid transfection, the transfection efficiency was ca. 20% of total cells and the neurite outgrowth was evaluated only in GFP-positive, i.e., transfected, cells. […]
Computer-assisted fluorescent microscopy was performed using a Nikon Diaphot 300 inverted microscope (Nikon) equipped with a Nikon Plan 20× objective and coupled to a video camera (Grundig Electronics, Germany). For each condition in each experiment, including the experiment with transfections, images of approximately 200 cells were recorded in systematic series of fields of view, and neurite outgrowth was quantified using a stereological approach as previously described ([Rønn et al., 2000]). […]

| Molecule | RET phosphorylation compared to unstimulated control [1] [%] | neurite outgrowth without antibody [2] | neurite outgrowth with anti-RET antibody ([2]; anti-RET antibody 4.1 μg/ml) | neurite outgrowth with anti-RET antibody versus unstimulated control ([2]; anti-RET antibody 4.1 μg/ml, artefin 0.47 μM, p < 0.01) | neurite outgrowth with control IgG [2] | neurite outgrowth effect in the presence of SU5402 [3] |
| --- | --- | --- | --- | --- | --- | --- |
| I: RSPHDLSLASLLGAGKK-NH2 / II: RSPHDLSLASLLGAGK / III: RSPHDLSLASLLGAG / IV: RSPHDLSLASLLGAG (amide I:16-IV:C, I:17-II:C, II:16-III:C; C-terminus assumed) [artefin] | ~500 | significantly increased when compared to the control (p < 0.01) | statistically significant reduction of artefin-induced neurite outgrowth (p < 0.01 versus artefin alone) | still significantly different from unstimulated control | did not significantly alter the neuritogenic effect of artefin | dose-dependently inhibited the neurite outgrowth effect of artefin |
| recombinant human Artemin (ARTN) (ligand, UniProt Q5T4W7 108-220, looked up, Artemin (ARTN), human, UniProt D3DPX9; source: bought: R&D Systems) AGGPGSRARAAGARGCRLRSQLVPVRALGLGHRSDELVRFRFCSGSCRRARSPHDLSLASLLGAGALRPPPGSRPVSQPCCRPTRYEAVSFMDVNSTWRTVDRLSATACGCLG | ~600 | significantly higher level of neurite outgrowth than control cultures | completely abolished the neurite elongation effect of ARTN | – | did not affect the ARTN-induced neurite outgrowth | completely abolished in the presence of serially diluted inhibitor |
